Patent publication US20160137714A1 (Thrasos Innovation, Inc., priority 2014, published 2016)
Values belong to the compound of their own block, whether it stands above or below them. Positions of bridges follow the written chain, without caps; N, C: chain ends. Non-standard residues stand in square brackets, D forms with d. Residues, ends and D or L forms follow the SMILES beside them.

Experiments:
[1] = In vitro plasma stability in heparin-treated fresh rat plasma at 37° C.; assay type: in vitro ADME; conditions: for AUC0-240: time 0 to 240 minutes; for remaining at 1 min, 1 μM / remaining at 5 min, 1 μM / remaining at 0.25 h, 1 μM / remaining at 0.5 h, 1 μM / remaining at 1 h, 1 μM / remaining at 2 h, 1 μM: heparin-treated fresh rat plasma
Protocol: GPR-397 and GPR-405 were independently added to fresh rat plasma at a final in-vial concentration of 1 μM. The peptides were incubated in a water bath at 37° C. over a time course that included the following points (in minutes): 0, 1, 5, 15, 30, 60, 120, 240, and 1440. After the incubation time was completed, a 50 μL aliquot of plasma was removed and proteins were precipitated using a solution containing internal standard (THR-123 at 150 ng/mL) in methanol with 0.5% acetic acid (v/v). The samples were centrifuged at 13,000 RPM for 5 minutes, and a 100 μL aliquot of supernatant was removed and transferred to a 96-well plate containing 100 μL of reconstitution solution (Water/MeOH/Acetic Acid/TFA, 60/40/0.2/0.05, v/v/v/v). A calibration curve and quality control (QC) samples were prepared in parallel in the same manner as the incubation samples. The calibration range for this assay was from 0.02 to 2.0 μM in rat plasma. The extracted calibrants, QC, and incubation samples were injected onto an AB SCIEX API 2000 LC-MS/MS system. Chromatographic separation was performed using a reversed-phase C18 HPLC column (Ace-3 C18, 30×2.1 mm, 3 μm). The solvent system consisted of Milli-Q water, acetonitrile and formic acid. Analyte and internal standard were detected using the multiple reaction monitoring (MRM) scan mode. Calibration curves were generated by using a weighted (1/concentration) quadratic regression analysis of the peak area ratios (analyte/internal standard) versus the nominal concentration of the calibration standards. The concentration of the analyte in the incubation samples was determined by back-calculating the peak area ratios obtained using the quadratic regression.
FIGS. 9-12 compare the in vitro plasma stability results for GPR-405 and THR-123 incubated in fresh rat plasma treated with heparin. FIG. 9 provides a scatter plot showing the first 240 minutes of the time-course and disappearance of the THR peptides in heparin-treated fresh rat plasma at 37° C. […] FIG. 12 compares the calculated half-life of THR-123 and GPR-405.

[2] = THR-123 i.v. in rodents: half-life and metabolites in plasma and kidney tissue; assay type: in vivo, rat
Excerpt: The main metabolite VII results from a proteolytic cleavage between positions 14 and 15 (VII in FIG. 2). The structure of each metabolite was confirmed by synthesis and analytical characterization.

Ex-vivo plasma stability = assay type: in vitro ADME, mouse or rat; conditions: fresh plasma 37° C., 1 μM
Protocol: Test article is added to fresh mouse or rat plasma at a final in-vial concentration of 1 μM. The peptide is incubated in a water bath at 37° C. over a time course that included the following points (in minutes): 0, 15, 30, 60, 120, 240, and 1440. After the incubation time is completed, a 50 μL aliquot of plasma is removed and proteins are precipitated using a solution containing internal standard (THR-123 at 150 ng/mL) in methanol with 0.5% acetic acid (v/v). The samples are centrifuged at 13,000 RPM for 5 minutes, and a 100 μL aliquot of supernatant is removed and transferred to a 96-well plate containing 200 μL of reconstitution solution (Water/MeOH/Acetic Acid/TFA, 60/40/0.2/0.05, v/v/v/v). A calibration curve and quality control (QC) samples are prepared in parallel in the same manner as the incubation samples. The calibration range for this assay is from 0.02 to 2.0 μM in rat or mouse plasma. The extracted calibrants, QC, and incubation samples are injected onto an AB SCIEX API 2000 LC-MS/MS system. Chromatographic separation is performed using a reversed-phase C18 HPLC column (Ace-3 C18, 30×2.1 mm, 3 μm). The solvent system consists of Milli-Q water, acetonitrile and formic acid. Analyte and internal standard are detected using the multiple reaction monitoring (MRM) scan mode. Calibration curves are generated by using a weighted (1/concentration) quadratic regression analysis of the peak area ratios (analyte/internal standard) versus the nominal concentration of the calibration standards. The concentration of the analyte in the incubation samples is determined by back-calculating the peak area ratios obtained using the quadratic regression.

[3] = fresh rat plasma 37° C., 1 μM peptide, 0 min
[4] = fresh rat plasma 37° C., 1 μM peptide, 1 min
[5] = fresh rat plasma 37° C., 1 μM peptide, 5 min
[6] = fresh rat plasma 37° C., 1 μM peptide, 15 min
[7] = fresh rat plasma 37° C., 1 μM peptide, 30 min
[8] = fresh rat plasma 37° C., 1 μM peptide, 60 min
[9] = fresh rat plasma 37° C., 1 μM peptide, 120 min
[10] = fresh rat plasma 37° C., 1 μM peptide, 240 min
[11] = fresh rat plasma 37° C., 1 μM peptide, 240 min (4 hours), read-out: TI remaining
[12] = fresh rat plasma 37° C., 1 μM peptide, 1440 min
[13] = fresh rat plasma 37° C., 1 μM peptide
[14] = fresh rat plasma treated with heparin in vitro at 37° C.
[15] = fresh rat plasma 37° C., 1 μM peptide, 1 min, read-out: TI remaining
[16] = fresh rat plasma 37° C., 1 μM peptide, 5 min, read-out: TI remaining
[17] = fresh rat plasma 37° C., 1 μM peptide, 15 min, read-out: TI remaining
[18] = fresh rat plasma 37° C., 1 μM peptide, 30 min, read-out: TI remaining
[19] = fresh rat plasma 37° C., 1 μM peptide, 60 min, read-out: TI remaining
[20] = fresh rat plasma 37° C., 1 μM peptide, 120 min, read-out: TI remaining

Mean plasma concentration [1, 3]: 1095 nM
Sample 1 plasma concentration [1, 3]: 1.100 µM
Sample 2 plasma concentration [1, 3]: 1.090 µM
TI remaining [1, 3]: 100%
Mean plasma concentration [1, 4]: 1065 nM
Sample 1 plasma concentration [1, 4]: 1.080 µM
Sample 2 plasma concentration [1, 4]: 1.050 µM
Mean plasma concentration [1, 5]: 1105 nM
Sample 1 plasma concentration [1, 5]: 1.090 µM
Sample 2 plasma concentration [1, 5]: 1.120 µM
Mean plasma concentration [1, 6]: 1065 nM
Sample 1 plasma concentration [1, 6]: 1.080 µM
Sample 2 plasma concentration [1, 6]: 1.050 µM
TI remaining [1, 6]: 97.3%
Mean plasma concentration [1, 7]: 1002 nM
Sample 1 plasma concentration [1, 7]: 0.963 µM
Sample 2 plasma concentration [1, 7]: 1.040 µM
Mean plasma concentration [1, 8]: 934 nM
Sample 1 plasma concentration [1, 8]: 0.895 µM
Sample 2 plasma concentration [1, 8]: 0.973 µM
Mean plasma concentration [1, 9]: 826 nM
Sample 1 plasma concentration [1, 9]: 0.836 µM
Sample 2 plasma concentration [1, 9]: 0.815 µM
Mean plasma concentration [1, 10]: 538 nM
Sample 1 plasma concentration [1, 10]: 0.534 µM
Sample 2 plasma concentration [1, 10]: 0.541 µM
TI remaining ([1]; fresh rat plasma 37° C., 1 μM peptide, 240 min (4 hours)): 49.1%
remaining at 4 h [1, 11]: 49.1%
Mean plasma concentration [1, 12]: 75 nM
Sample 1 plasma concentration [1, 12]: 0.081 µM
Sample 2 plasma concentration [1, 12]: 0.068 µM
TI remaining ([1]; fresh rat plasma 37° C., 1 μM peptide, 1440 min (24 hours)): 6.8%
remaining at 24 h ([1]; fresh rat plasma 37° C., 1 μM peptide, 1440 min (24 hours), read-out: TI remaining): 6.8%
AUC0-240 [1, 13]: 195.4 μM* min/ml
measured half-life relative to that of THR-123 [1, 14]: about 100 times
stability compared with THR-123 [1, 14]: dramatically more stable than THR-123
remaining at 1 min, 1 μM [1, 15]: 97.3%
remaining at 5 min, 1 μM [1, 16]: 101%
remaining at 0.25 h, 1 μM [1, 17]: 97.3%
remaining at 0.5 h, 1 μM [1, 18]: 91.5%
remaining at 1 h, 1 μM [1, 19]: 85.3%
remaining at 2 h, 1 μM [1, 20]: 75.4%
SMILES: CC(C)C[C@@H]1NC(=O)[C@H](C(C)C)NC(=O)[C@H](CCC(N)=O)NC(=O)[C@H](CO)NC(=O)[C@H](CO)NC(=O)[C@H](CC(N)=O)NC(=O)[C@H](Cc2ccccc2)NC(=O)[C@H](Cc2ccc(O)cc2)NC(=O)[C@H](Cc2ccc(O)cc2)NC(=O)[C@@H](N)CSSC[C@@H](C(=O)N[C@@H](CCCCN)C(=O)N[C@@H](CCCNC(=N)N)C(=O)N[C@H](Cc2ccc(O)cc2)C(=O)N[C@@H](CCCNC(=N)N)C(=O)N[C@@H](CO)C(=O)O)NC1=O [GPR-405, Cys-Tyr-Tyr-Phe-Asn-Ser-Ser-Gln-Val-Leu-Cys-Lys-Arg-(D)Tyr-Arg-Ser] (H-CYYFNSSQVLCKR[dY]RS-OH; disulfide 1-11)

Mean plasma concentration [1, 3]: 905 nM
Sample 1 plasma concentration [1, 3]: 0.970 µM
Sample 2 plasma concentration [1, 3]: 0.840 µM
TI remaining [1, 3]: 100%
Mean plasma concentration [1, 4]: 855 nM
Sample 1 plasma concentration [1, 4]: 0.850 µM
Sample 2 plasma concentration [1, 4]: 0.860 µM
Mean plasma concentration [1, 5]: 295 nM
Sample 1 plasma concentration [1, 5]: 0.300 µM
Sample 2 plasma concentration [1, 5]: 0.290 µM
Mean plasma concentration [1, 6]: 55 nM
Sample 1 plasma concentration [1, 6]: 0.060 µM
Sample 2 plasma concentration [1, 6]: 0.050 µM
Mean plasma concentration [1, 7]: 30 nM
Sample 1 plasma concentration [1, 7]: 0.060 µM
Sample 2 plasma concentration [1, 7]: 0.030 µM
Mean plasma concentration [1, 8]: 25 nM
Sample 1 plasma concentration [1, 8]: 0.026 µM
Sample 2 plasma concentration [1, 8]: 0.024 µM
Mean plasma concentration [1, 9]: 18 nM
Sample 1 plasma concentration [1, 9]: 0.015 µM
Sample 2 plasma concentration [1, 9]: 0.020 µM
Mean plasma concentration [1, 10]: 11 nM
Sample 1 plasma concentration [1, 10]: 0.010 µM
Sample 2 plasma concentration [1, 10]: 0.011 µM
remaining at 4 h [1, 11]: 1.2%
AUC0-240 [1, 13]: 15.65 μM* min/ml
remaining at 1 min, 1 μM [1, 15]: 94.4%
remaining at 5 min, 1 μM [1, 16]: 32.4%
remaining at 0.25 h, 1 μM [1, 17]: 6.4%
remaining at 0.5 h, 1 μM [1, 18]: 3.3%
remaining at 1 h, 1 μM [1, 19]: 2.8%
remaining at 2 h, 1 μM [1, 20]: 1.9%
half-life in plasma and kidney tissue ([2]; administered intravenously to rodents, FIG. 1): short half-life
metabolites identified in the kidney ([2]; rat kidney tissue, ten minutes post i.v. administration, FIG. 2): metabolites VI, VII, VIII and IX
remaining at 1 h (Ex-vivo plasma stability; 60 min, read-out: Percent remaining 60 min): 3.4%
remaining at 2 h (Ex-vivo plasma stability; 120 min, read-out: Percent remaining 120 min): 2.3%
SMILES: CC(C)C[C@@H]1NC(=O)[C@H](C(C)C)NC(=O)[C@H](CC(N)=O)NC(=O)[C@H](CO)NC(=O)[C@H](CO)NC(=O)[C@H](CC(=O)O)NC(=O)[C@H](CC(=O)O)NC(=O)[C@H](Cc2ccccc2)NC(=O)[C@H](Cc2ccc(O)cc2)NC(=O)[C@@H](N)CSSC[C@@H](C(=O)N[C@@H](CCCCN)C(=O)N[C@@H](CCCCN)C(=O)N[C@@H](Cc2ccc(O)cc2)C(=O)N[C@@H](CCCNC(=N)N)C(=O)N[C@@H](CO)C(=O)O)NC1=O [THR-123, Cys-Tyr-Phe-Asp-Asp-Ser-Ser-Asn-Val-Leu-Cys-Lys-Lys-Tyr-Arg-Ser] (H-CYFDDSSNVLCKKYRS-OH; disulfide 1-11)
